Experimental data from patent US20110281896A1, “OPTICALLY PURE QUINAZOLINE COMPOUNDS” (Jiangsu Hansoh Pharmaceutical Co. Ltd, priority 2009, published 2011).

Columns and labels:
A431 = experiment: Antitumor activity in vitro, SRB cell proliferation inhibition; type: cell-based; settings: 72 h incubation, Logit method
Method: (§1) Evaluation of Antitumor Activity In Vitro
(§2) Cell Strains: A431; MCF-7
(§3) Experiment Design: Cells were incubated with different concentrations of compounds for 72 hours. The inhibition of cell proliferation by the compounds was evaluated by SRB, followed by calculation of the inhibition rate. Then, value of IC50 was calculated by using-Logit method base on the inhibition rate and used to compare in vitro antitumor activity of the compounds.
(§4) Method for Calculating the Inhibition Rate: Inhibition rate (%)=(OD value of control group−OD value of drug group)/OD value of control group×100%

MCF-7 = experiment: as above; type: cell-based; settings: 72 h incubation, Logit method
Method: as §1, §2, §3, §4

[1] = system: human lung cancer Calu-3 xenografts; experiment: Effect on xenografts in nude mice with lung cancer Calu-3; type: in vivo, BALB/cA-nude mice; settings: PO QD × 17
Method: Effect of compound 97(±), compound 97, compound 110 and Lapatinib (positive control) on xenografts in nude mice with lung cancer Calu-3 Remark: “±” means the compound is racemic.
The purpose of the experiment is to evaluate and compare the effect of compound 97(±), compound 97, compound 110, Lapatinib on xenografts in nude mice with lung cancer Calu-3.
BALB/cA-nude mice, 6-7 weeks, ♀, purchased from ShangHai Slac laboratory animal Co., Ltd.
Calu-3 cells were injected subcutaneously into nude mice. Animals were divided into groups (d0) randomly after tumors have grown to 150-300 mm^3. Dosage and dosage regimen design can be seen in table 1. Tumors volume was measured 2-3 times per week. Mice were weighed and data were recorded. Calculation formula for tumor volume (V) is as below:
V=½×a×b^2, wherein, a and b represent length and width respectively.

[2] = Homo sapiens, A-431, A431 cells
[3] = Homo sapiens, MCF7, MCF-7 cells

Structure (SMILES) | IC50 (A431; [2]) | IC50 (MCF-7; [3]) | IC50 (A431; A431 cells) | IC50 (MCF-7; MCF-7 cells) | further results
CS(=O)(=O)CCNCc1ccc(-c2ccc3ncnc(Nc4ccc(OCc5cccc(F)c5)c(Cl)c4)c3c2)o1 [Lapatinib, reference compound] | 0.643 µM | 8.47 µM | – | – | Initial Tumor Volume (mm^3) D0 ([1]; D0 = time of first administration (baseline), 146.5-146.7 mg/kg, mean): 262.3 mm^3; Final Tumor Inhibition Rate (%) D16 ([1]; D16, 146.5-146.7 mg/kg): 42%; % T/C D16 ([1]; D16, 146.5-146.7 mg/kg, T, C = mean tumor volume of drug, control group): 58%; Relative Tumor Volume D16 ([1]; D16, 146.5-146.7 mg/kg, mean): 2.0; Final Tumor Volume (mm^3) D16 ([1]; D16 = 17th day after administration, 146.5-146.7 mg/kg, mean): 526.5 mm^3; The Recession/Group ([1]; number of mice per group of 6, 146.5-146.7 mg/kg): 0; inhibition of growth of human lung cancer Calu-3 (in words) ([1]; xenografts in nude mice): inhibited the growth of human lung cancer Calu-3 significantly
CON(C)[C@H](CS(C)(=O)=O)c1ccc(-c2ccc3ncnc(Nc4ccc5c(cnn5Cc5cccc(F)c5)c4)c3c2)o1 [Compound 156] | – | – | 0.428 µM | 5.52 µM | –
CN(C)[C@H](CS(C)(=O)=O)c1cnc(-c2ccc3ncnc(Nc4ccc(OCc5cccc(F)c5)c(Cl)c4)c3c2)s1 [Compound 136] | – | – | 0.449 µM | 5.43 µM | –
CS(=O)(=O)C[C@H](NCC1CC1)c1ccc(-c2ccc3ncnc(Nc4ccc(OCc5cccc(F)c5)c(Cl)c4)c3c2)o1 [Compound 109, (R)—N-(4-(3-fluorobenzyl-oxy)-3-chlorophenyl)-6-(5-(1-(cyclopropylmethyl-amino)-2-(methylsulfonyl)ethyl)furan-2-yl)quinazolin-4-amine] | 0.756 µM | 6.21 µM | – | – | –
CS(=O)(=O)C[C@@H](N)c1ccc(-c2ccc3ncnc(Nc4ccc(OCc5cccc(F)c5)c(Cl)c4)c3c2)o1 [Compound 92, (S)—N-(4-(3-fluorobenzyl-oxy)-3-chlorophenyl)-6-(5-(1-(amino)-2-(methylsulfonyl)ethyl)furan-2-yl)quinazolin-4-amine] | 0.422 µM | 9.34 µM | – | – | –
CN(C)[C@H](CS(C)(=O)=O)c1ccc(-c2ccc3ncnc(Nc4ccc5c(cnn5Cc5cccc(F)c5)c4)c3c2)o1 [Compound 149, (S)—N-(1-(3-fluorobenzyl)-1H-indazol-5-yl)-6-(5-(1-(N,N-dimethylamino)-2-(methylsulfonyl)ethyl)furan-2-yl)quinazolin-4-amine] | 0.349 µM | 7.23 µM | – | – | –
CCN(CC)[C@@H](CS(C)(=O)=O)c1cnc(-c2ccc3ncnc(Nc4ccc(OCc5cccc(F)c5)c(Cl)c4)c3c2)s1 [Compound 124] | – | – | 0.685 µM | 7.98 µM | –
C=CCN[C@@H](CS(C)(=O)=O)c1ccc(-c2ccc3ncnc(Nc4ccc(OCc5cccc(F)c5)c(Cl)c4)c3c2)o1 [Compound 114, (R)—N-(4-(3-fluorobenzyl-oxy)-3-chlorophenyl)-6-(5-(1-(allyl-amino)-2-(methylsulfonyl)ethyl)furan-2-yl)quinazolin-4-amine] | 0.489 µM | 7.9 µM | – | – | –
C=CCN[C@H](CS(C)(=O)=O)c1ccc(-c2ccc3ncnc(Nc4ccc(OCc5cccc(F)c5)c(Cl)c4)c3c2)o1 [Compound 101, (S)—N-(4-(3-fluorobenzyl-oxy)-3-chlorophenyl)-6-(5-(1-(allyl-amino)-2-(methylsulfonyl)ethyl)furan-2-yl)quinazolin-4-amine] | 0.588 µM | 10.4 µM | – | – | –
CS(=O)(=O)C[C@H](N)c1cnc(-c2ccc3ncnc(Nc4ccc(OCc5cccc(F)c5)c(Cl)c4)c3c2)s1 [Compound 118, (S)—N-(4-(3-fluorobenzyl-oxy)-3-chlorophenyl)-6-(5-(1-(amino)-2-(methylsulfonyl)ethyl)thiazole-2-yl)quinazolin-4-amine] | 0.525 µM | 6.69 µM | – | – | –
C=CCN[C@H](CS(C)(=O)=O)c1cnc(-c2ccc3ncnc(Nc4ccc(OCc5cccc(F)c5)c(Cl)c4)c3c2)s1 [Compound 140] | – | – | 0.648 µM | 4.02 µM | –
C=CCN[C@H](CS(C)(=O)=O)c1ccc(-c2ccc3ncnc(Nc4ccc5c(cnn5Cc5cccc(F)c5)c4)c3c2)o1 [Compound 153, (S)—N-(1-(3-fluorobenzyl)-1H-indazol-5-yl)-6-(5-(1-(allyl-amino)-2-(methylsulfonyl)ethyl)furan-2-yl)quinazolin-4-amine] | 0.857 µM | 5.87 µM | – | – | –
CON[C@H](CS(C)(=O)=O)c1ccc(-c2ccc3ncnc(Nc4ccc5c(cnn5Cc5cccc(F)c5)c4)c3c2)o1 [Compound 155] | – | – | 0.48 µM | 8.59 µM | –

Now from value to compound, other results behind:

IC50 (A431; [2]) | IC50 (MCF-7; [3]) | IC50 (A431; A431 cells) | IC50 (MCF-7; MCF-7 cells) | Structure (SMILES) | further results
0.699 µM | 6.82 µM | – | – | CCN(CC)[C@@H](CS(C)(=O)=O)c1ccc(-c2ccc3ncnc(Nc4ccc(OCc5cccc(F)c5)c(Cl)c4)c3c2)o1 [Compound 111, (R)—N-(4-(3-fluorobenzyl-oxy)-3-chlorophenyl)-6-(5-(1-(N,N-diethyl-amino)-2-(methylsulfonyl)ethyl)furan-2-yl)quinazolin-4-amine] | –
– | – | 0.499 µM | 7.87 µM | CON[C@H](CS(C)(=O)=O)c1cnc(-c2ccc3ncnc(Nc4ccc(OCc5cccc(F)c5)c(Cl)c4)c3c2)s1 [Compound 142] | –
0.453 µM | 7.9 µM | – | – | CCCN[C@H](CS(C)(=O)=O)c1ccc(-c2ccc3ncnc(Nc4ccc(OCc5cccc(F)c5)c(Cl)c4)c3c2)o1 [Compound 95, (S)—N-(4-(3-fluorobenzyl-oxy)-3-chlorophenyl)-6-(5-(1-(propyl-amino)-2-(methylsulfonyl)ethyl)furan-2-yl)quinazolin-4-amine] | –
0.457 µM | 8.9 µM | – | – | C#CCN[C@H](CS(C)(=O)=O)c1ccc(-c2ccc3ncnc(Nc4ccc(OCc5cccc(F)c5)c(Cl)c4)c3c2)o1 [Compound 102, (S)—N-(4-(3-fluorobenzyl-oxy)-3-chlorophenyl)-6-(5-(1-(propargyl-amino)-2-(methylsulfonyl)ethyl)furan-2-yl)quinazolin-4-amine] | –
0.536 µM | 7.58 µM | – | – | C#CCN[C@@H](CS(C)(=O)=O)c1ccc(-c2ccc3ncnc(Nc4ccc(OCc5cccc(F)c5)c(Cl)c4)c3c2)o1 [Compound 115, (R)—N-(4-(3-fluorobenzyl-oxy)-3-chlorophenyl)-6-(5-(1-(propargyl-amino)-2-(methylsulfonyl)ethyl)furan-2-yl)quinazolin-4-amine] | –
0.855 µM | 6.22 µM | – | – | CCCN(CCC)[C@@H](CS(C)(=O)=O)c1ccc(-c2ccc3ncnc(Nc4ccc(OCc5cccc(F)c5)c(Cl)c4)c3c2)o1 [Compound 112, (R)—N-(4-(3-fluorobenzyl-oxy)-3-chlorophenyl)-6-(5-(1-(N,N-dipropyl-amino)-2-(methylsulfonyl)ethyl)furan-2-yl)quinazolin-4-amine] | –
– | – | 0.426 µM | 4.6 µM | CCCN(CCC)[C@H](CS(C)(=O)=O)c1cnc(-c2ccc3ncnc(Nc4ccc(OCc5cccc(F)c5)c(Cl)c4)c3c2)s1 [Compound 138] | –
0.664 µM | 7.87 µM | – | – | CS(=O)(=O)C[C@H](N)c1ccc(-c2ccc3ncnc(Nc4ccc(OCc5cccc(F)c5)c(Cl)c4)c3c2)o1 [Compound 105, (R)—N-(4-(3-fluorobenzyl-oxy)-3-chlorophenyl)-6-(5-(1-(amino)-2-(methylsulfonyl)ethyl)furan-2-yl)quinazolin-4-amine] | –
– | – | 0.588 µM | 6.12 µM | CN[C@@H](CS(C)(=O)=O)c1cnc(-c2ccc3ncnc(Nc4ccc(OCc5cccc(F)c5)c(Cl)c4)c3c2)s1 [Compound 119] | –
– | – | 0.658 µM | 7.56 µM | CCN[C@@H](CS(C)(=O)=O)c1cnc(-c2ccc3ncnc(Nc4ccc(OCc5cccc(F)c5)c(Cl)c4)c3c2)s1 [Compound 120] | –
0.406 µM | 8.01 µM | – | – | CCCN[C@H](CS(C)(=O)=O)c1ccc(-c2ccc3ncnc(Nc4ccc5c(cnn5Cc5cccc(F)c5)c4)c3c2)o1 [Compound 147, (S)—N-(1-(3-fluorobenzyl)-1H-indazol-5-yl)-6-(5-(1-(propylamino)-2-(methylsulfonyl)ethyl)furan-2-yl)quinazolin-4-amine] | –
– | – | 0.441 µM | 4.8 µM | CON[C@@H](CS(C)(=O)=O)c1ccc(-c2ccc3ncnc(Nc4ccc(OCc5cccc(F)c5)c(Cl)c4)c3c2)o1 [Compound 116] | –
0.489 µM | 5.46 µM | – | – | CCN[C@H](CS(C)(=O)=O)c1ccc(-c2ccc3ncnc(Nc4ccc5c(cnn5Cc5cccc(F)c5)c4)c3c2)o1 [Compound 146, (S)—N-(1-(3-fluorobenzyl)-1H-indazol-5-yl)-6-(5-(1-(ethylamino)-2-(methylsulfonyl)ethyl)furan-2-yl)quinazolin-4-amine] | –
